Assay results from patent US11306063B2, “Heterocyclic naphthoquinones derivatives for use in the treatment of cancers including Cushing disease” (Commissariat a l'Energie Atomique et aux Energies …, priority 2016, dated 2022).

Legend:
[1] = molecular target: T1, USP2^CD (purified catalytic domain of USP2) (Homo sapiens, UniProt O75604); test: Inhibition of purified USP2^CD enzymatic activity (Ub-AMC or Ub-Rho substrate); assay type: biochemical; conditions: for inhibition at 0.01 µM: 0.01 μM compound; for inhibition at 0.05 µM: 0.05 μM compound; for inhibition at 0.1 µM: 0.1 μM compound; for inhibition at 0.5 µM: 0.5 μM compound; for inhibition at 1 µM: 1 μM compound; for inhibition at 5 µM: 5 μM compound; for inhibition at 10 µM: 10 μM compound; for inhibition at 25 µM: 25 μM compound; for inhibition at 50 µM: 50 μM compound; for IC50: Ub-AMC substrate at 1 μM, Table 2b, read-out: IC50 USP2 CD
T1 construct: The purified catalytic domain of USP2 (USP2^CD, in-house purified); His; made in house; host or cells: E. coli BL21 Gold
T1 sequence (O75604 267-599 limits assumed): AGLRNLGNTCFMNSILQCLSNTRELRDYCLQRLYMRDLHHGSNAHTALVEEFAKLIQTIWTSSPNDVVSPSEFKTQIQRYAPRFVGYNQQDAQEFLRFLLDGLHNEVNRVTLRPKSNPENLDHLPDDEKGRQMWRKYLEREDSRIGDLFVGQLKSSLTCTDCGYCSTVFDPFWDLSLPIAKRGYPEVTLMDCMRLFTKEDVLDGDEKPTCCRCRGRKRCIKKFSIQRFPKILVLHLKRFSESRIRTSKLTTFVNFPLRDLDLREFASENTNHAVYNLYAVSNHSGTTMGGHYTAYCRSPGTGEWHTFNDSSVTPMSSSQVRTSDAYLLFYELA
Description: (§1) USP2CD or USP8CD were expressed in E. coli BL21 Gold. Cells were grown in LB Miller to mid-log phase and induced by addition of 0.5 mM IPTG for USP2CD for 5 h at 20° C., while 1 mM IPTG was added for USP8CD for 3 h at 37° C. Then, cells were harvested and frozen at −80° C.
For His-tagged USP2CD, cells were resuspended in buffer C (10 mM TRIS pH 8.0, 100 mM NaCl, 10 mM Imidazole) and lysed using a sonicator. The lysate was clarified by centrifugation and applied to Ni Sepharose6 Fast Flow resin (GE Healthcare). The resin was sequentially washed with buffer C, then with buffer C containing 50 mM Imidazole. Protein sample was eluted from the resin using buffer C containing 250 mM Imidazole. The eluted protein was buffer exchanged by gel-filtration on a Superdex 200 10/300 GL column (GE Healthcare) equilibrated in Buffer D (15 mM Bis-TRIS pH 6.0, 100 mM NaCl, 1 mM dithiothreitol (DTT)).
(§2) Enzymatic assay was performed in a HEPES buffer (50 mM pH7.6 1 mM DTT, 2% glycerol, 0.5 mM EDTA) or in a Tris buffer (40 mM pH7.4 1 mM DTT, 5% glycerol, 0.05 mg/ml BSA) respectively, following manufacturer's instructions. Compounds were added to the reaction mixture just prior to the substrate. The enzymatic reaction kinetics was monitored through the apparition of fluorescence due to the hydrolysis of the peptidyl Ub-AMC or Ub-Rho bound over 20 or 30 minutes.
(§3) Medium value out of duplicates is reported.

[2] = molecular target: T2, USP8^CD (purified catalytic domain of USP8) (Homo sapiens, UniProt P40818); test: Inhibition of purified USP8^CD enzymatic activity (Ub-AMC or Ub-Rho substrate); assay type: biochemical; conditions: for inhibition at 0.01 µM: 0.01 μM compound; for inhibition at 0.05 µM: 0.05 μM compound; for inhibition at 0.1 µM: 0.1 μM compound; for inhibition at 0.5 µM: 0.5 μM compound; for inhibition at 1 µM: 1 μM compound; for inhibition at 5 µM: 5 μM compound; for inhibition at 10 µM: 10 μM compound; for inhibition at 25 µM: 25 μM compound; for inhibition at 50 µM: 50 μM compound; for IC50: Ub-AMC substrate at 1 μM, Table 2b, read-out: IC50 USP8 CD
T2 construct: the purified catalytic domain of USP8 (USP8^CD, in-house purified); made in house; host or cells: E. coli BL21 Gold
T2 sequence (P40818 777-1109 limits assumed): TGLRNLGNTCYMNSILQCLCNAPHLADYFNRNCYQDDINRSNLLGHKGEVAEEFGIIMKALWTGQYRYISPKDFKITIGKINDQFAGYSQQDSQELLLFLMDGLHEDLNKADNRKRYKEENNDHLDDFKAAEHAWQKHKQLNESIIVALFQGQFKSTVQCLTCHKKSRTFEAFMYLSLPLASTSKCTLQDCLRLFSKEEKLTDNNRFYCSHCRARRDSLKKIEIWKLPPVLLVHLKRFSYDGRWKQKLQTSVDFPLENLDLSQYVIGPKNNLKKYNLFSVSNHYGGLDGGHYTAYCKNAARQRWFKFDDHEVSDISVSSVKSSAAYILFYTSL
Description: as §1
For His-tagged USP8CD, cells were resuspended in buffer A (50 mM TRIS pH 8.0, 500 mM NaCl, 2 mM Imidazole) and lysed using a sonicator. The lysate was clarified by centrifugation and applied to Ni Sepharose6 Fast Flow resin (GE Healthcare). The resin was sequentially washed first with buffer A containing 10 mM Imidazole then with buffer A containing 20 mM Imidazole, and finally with buffer A containing 50 mM Imidazole. Protein sample was eluted from the resin using buffer A containing 300 mM Imidazole. The eluted protein was buffer exchanged by gel-filtration on a Superdex 200 10/300 GL column (GE Healthcare) equilibrated in Buffer B (20 mM HEPES pH 7.5, 300 mM NaCl, 2 mM dithiothreitol (DTT)).
as §2, §3

Structure (SMILES)	inhibition at 0.01 µM ([1]; Table 1c) [%]	inhibition at 0.05 µM ([1]; Table 1c) [%]	inhibition at 0.1 µM ([1]; Table 1c) [%]	inhibition at 0.5 µM ([1]; Table 1c) [%]	inhibition at 1 µM ([1]; Table 1b) [%]	inhibition at 1 µM ([1]; Table 1c) [%]	inhibition at 5 µM ([1]; Table 1b) [%]	inhibition at 5 µM ([1]; Table 1c) [%]	inhibition at 10 µM ([1]; Table 1c) [%]	inhibition at 25 µM ([1]; Table 1b) [%]	inhibition at 50 µM ([1]; Table 1b) [%]	IC50 [1] [µM]	inhibition at 0.01 µM ([2]; Table 1d) [%]	inhibition at 0.05 µM ([2]; Table 1d) [%]	inhibition at 0.1 µM ([2]; Table 1d) [%]	inhibition at 0.5 µM ([2]; Table 1d) [%]	inhibition at 1 µM ([2]; Table 1b) [%]	inhibition at 5 µM ([2]; Table 1b) [%]	inhibition at 25 µM ([2]; Table 1b) [%]	inhibition at 50 µM ([2]; Table 1b) [%]	also measured
CCCCCS(=O)(=O)Cc1nc2c(nc1CS(=O)(=O)CCCCC)C(=O)c1ccccc1C2=O [VIN6077]	-11	-16	-13	11	24	-17	51	20	27	63	76	> 10	19	-2	26	26	54	94	101	100	inhibition at 1 µM ([2]; Table 1d): 44%; inhibition at 5 µM ([2]; Table 1d): 100%; inhibition at 10 µM ([2]; Table 1d): 91%; IC50 [2]: 1.2 µM
COc1ccc(S(=O)(=O)Cc2nc3c(nc2CS(=O)(=O)c2ccc(OC)cc2)C(=O)c2ccccc2C3=O)cc1 [PCR7994]	-8	-12	2	26	-9	5	22	8	17	53	50	> 10	-7	-13	-23	18	62	68	91	100	inhibition at 1 µM ([2]; Table 1d): 31%; inhibition at 5 µM ([2]; Table 1d): 52%; inhibition at 10 µM ([2]; Table 1d): 73%; IC50 [2]: 5 µM

Continued, in another order:

inhibition at 0.01 µM ([1]; Table 1c) [%]	inhibition at 0.05 µM ([1]; Table 1c) [%]	inhibition at 0.1 µM ([1]; Table 1c) [%]	inhibition at 0.5 µM ([1]; Table 1c) [%]	inhibition at 1 µM ([1]; Table 1b) [%]	inhibition at 1 µM ([1]; Table 1c) [%]	inhibition at 5 µM ([1]; Table 1b) [%]	inhibition at 5 µM ([1]; Table 1c) [%]	inhibition at 10 µM ([1]; Table 1c) [%]	inhibition at 25 µM ([1]; Table 1b) [%]	inhibition at 50 µM ([1]; Table 1b) [%]	IC50 [1] [µM]	inhibition at 0.01 µM ([2]; Table 1d) [%]	inhibition at 0.05 µM ([2]; Table 1d) [%]	inhibition at 0.1 µM ([2]; Table 1d) [%]	inhibition at 0.5 µM ([2]; Table 1d) [%]	inhibition at 1 µM ([2]; Table 1b) [%]	inhibition at 5 µM ([2]; Table 1b) [%]	inhibition at 25 µM ([2]; Table 1b) [%]	inhibition at 50 µM ([2]; Table 1b) [%]	Structure (SMILES)	also measured
–	–	–	–	1	–	26	–	–	42	80	–	–	–	–	–	10	56	92	104	O=C1c2ccccc2C(=O)c2nc(CS(=O)(=O)c3ccc(Br)s3)c(CS(=O)(=O)c3ccc(Br)s3)nc21 [OVM16]	–
–	–	–	–	-11	–	9	–	–	27	25	–	–	–	–	–	25	33	68	85	O=C1c2ccccc2C(=O)c2nc(CS(=O)(=O)c3cccc(C(F)(F)F)c3)c(CS(=O)(=O)c3cccc(C(F)(F)F)c3)nc21 [OVM17]	–
-20	-26	-22	16	69	18	53	-1	4	94	97	> 10	-5	12	24	20	83	92	100	103	O=C1c2ccccc2C(=O)c2nc(CS(=O)(=O)c3ccc(F)c(F)c3F)c(CS(=O)(=O)c3ccc(F)c(F)c3F)nc21 [OVM23]	inhibition at 1 µM ([2]; Table 1d): 34%; inhibition at 5 µM ([2]; Table 1d): 74%; inhibition at 10 µM ([2]; Table 1d): 80%; IC50 [2]: 2.2 µM
